Here are results for ten molecules from PubChem BioAssay (NCI).

Some test systems named below: 786-0 renal; ACHN renal; HT29 colon; LOX IMVI melanoma; MCF7 breast; NCI-H226 lung; NCI/ADR-RES ovarian; RPMI-8226 leukemia; SR leukemia; HCT-116 colon.
Common to all, as to experiment: inhibition of tumour cell growth, NCI panel, 48 h

Where “and” joins values, the source holds several entries; their conditions need not be identical. Equal values may be shown once.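 Growth conditions: 96-well plates. Treatment: test compound, 48 hours, 5 concentrations. Analysis: linear interpolation between bracketing concentrations; unreached endpoints set to highest concentration. At the GI50, growth is halved. TGI marks complete inhibition of growth.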 Some results are limits rather than exact numbers.

With `COc1cc(/C=C\[N+](=O)[O-])ccc1OCc1ccccc1`, the GI50 with 786-0 renal is 1.84 µM; in the assay with ACHN renal, 1.99 µM; in the assay on HT29 colon it was 1.94 µM; in the assay on LOX IMVI melanoma it was 1 µM; in the assay with MCF7 breast, 1.44 µM; in the assay on NCI-H226 lung, 2.26 µM. For the same molecule, the GI50 was 3.5 µM in the assay with NCI/ADR-RES ovarian, 0.43 µM in the assay with RPMI-8226 leukemia and 1.46 µM in the assay on SR leukemia. Moreover, the TGI in the assay with 786-0 renal was 3.74 µM; in the assay with ACHN renal it was 4.36 µM; with HT29 colon, 4 µM; in the assay on LOX IMVI melanoma, 2.3 µM; in the assay with MCF7 breast, 3.27 µM; with NCI-H226 lung, 5.47 µM. Besides, the results for the TGI with NCI/ADR-RES ovarian, in the assay with RPMI-8226 leukemia and in the assay on SR leukemia were 24.9 µM, 2.73 µM and 5.27 µM, respectively.

Turning to `OCCSCc1ccccc1`, the TGI with 786-0 renal, in the assay on ACHN renal, with HCT-116 colon, with HT29 colon, in the assay on LOX IMVI melanoma and in the assay with MCF7 breast was more than 100 µM in each case. Also, the TGI in the assay with NCI-H226 lung, in the assay with NCI/ADR-RES ovarian, with RPMI-8226 leukemia and in the assay on SR leukemia was more than 100 µM in each case.

With `C#CC1(O)C(COP(=O)(O)OC2CC(n3cc(F)c(=O)[nH]c3=O)OC2CO)OC(n2ccc(N)nc2=O)C1O` (stereo not given), the GI50 is less than 0.0117 µM in the assay with 786-0 renal; less than 0.01 µM in the assay with ACHN renal; less than 0.01 µM in the assay with HCT-116 colon; less than 0.0139 µM in the assay with HT29 colon; less than 0.01 µM with LOX IMVI melanoma; less than 0.01 µM in the assay on MCF7 breast. Also, the GI50 in the assay on NCI-H226 lung was 0.0614 µM; in the assay with NCI/ADR-RES ovarian it was less than 0.012 µM; in the assay on RPMI-8226 leukemia, less than 0.01 µM; with SR leukemia, less than 0.01 µM. For the same molecule, the TGI was more than 100 µM with 786-0 renal; more than 100 µM in the assay with HCT-116 colon; more than 100 µM in the assay on HT29 colon; 1.87 µM in the assay with LOX IMVI melanoma; 0.137 µM with MCF7 breast; more than 36.1 µM with NCI-H226 lung. In the assay on SR leukemia, this molecule registered a TGI of 0.142 µM.

Regarding `COc1cc2c3c(c1)c1cc(OC)c(OC)cc1c[n+]3CC2`, the GI50 is 56.2 µM in the assay with 786-0 renal; more than 100 µM in the assay on ACHN renal; 40.5 µM with HCT-116 colon; 37.2 µM with HT29 colon; 35.5 µM in the assay on LOX IMVI melanoma; 21.3 µM in the assay on MCF7 breast. Also, the GI50 with NCI-H226 lung is 4.13 µM; in the assay on NCI/ADR-RES ovarian, more than 100 µM. Moreover, the TGI in the assay with 786-0 renal was 50 µM and > 100 µM; with ACHN renal it was more than 100 µM; in the assay on HCT-116 colon it was 50 µM and > 100 µM; in the assay on HT29 colon it was 50 µM and > 100 µM; in the assay with LOX IMVI melanoma, 50 µM and > 100 µM; in the assay with MCF7 breast, 50 µM and > 100 µM. Besides, the TGI in the assay with NCI-H226 lung is 50 µM and 77.3 µM; in the assay on NCI/ADR-RES ovarian, more than 100 µM; in the assay on RPMI-8226 leukemia, 50 µM; in the assay on SR leukemia, 50 µM.

As to `CC(=O)O[C@H]1CC[C@@]2(C)C(=CC[C@H]3C4=CC=C(C(C)=O)[C@@]4(C)CCC32)C1` (stereo not given in full), the TGI in the assay with 786-0 renal is more than 100 µM; in the assay on ACHN renal it was more than 100 µM; in the assay with HCT-116 colon it was 36.9 µM; in the assay with HT29 colon it was more than 100 µM; in the assay on LOX IMVI melanoma, 43.8 µM; with NCI-H226 lung, 71.4 µM. For the same molecule, the TGI in the assay on RPMI-8226 leukemia was more than 100 µM; in the assay with SR leukemia it was 81 µM.

In the case of `CC1=C[C@H]2c3c(c(O)c(O)c4oc5ccccc5c(=O)c34)[C@H](c3cc(O)c(O)c4oc5ccccc5c(=O)c34)[C@H]2C(C)(C)C1`, the GI50 with 786-0 renal was 1.99 µM; with ACHN renal, 0.863 µM; in the assay on HCT-116 colon it was 0.224 µM; in the assay on HT29 colon it was 0.86 µM; with LOX IMVI melanoma, 0.451 µM; in the assay with MCF7 breast, 0.772 µM. The GI50 in the assay with NCI/ADR-RES ovarian is 3.07 µM; in the assay with SR leukemia, 0.384 µM. Moreover, the TGI amounted to 6.24 µM in the assay with 786-0 renal; 9.22 µM in the assay on ACHN renal; 1.75 µM in the assay with HCT-116 colon; 13.8 µM in the assay on HT29 colon; 1.76 µM in the assay with LOX IMVI melanoma; 11.1 µM with MCF7 breast. The TGI in the assay on NCI/ADR-RES ovarian came out at 16.3 µM; in the assay with SR leukemia it was 34.4 µM.

In the case of `ClC(Cl)c1nc(-c2cccnc2)n2nc(-c3ccccc3)cc2n1`, the GI50 in the assay on 786-0 renal was 3.05 µM; in the assay with ACHN renal it was 1.37 µM; in the assay with HCT-116 colon, 1.43 µM; with NCI/ADR-RES ovarian, 1.14 µM; with SR leukemia it was 0.348 µM. Besides, the TGI with 786-0 renal was more than 100 µM; in the assay with ACHN renal it was 4.94 µM; in the assay with HCT-116 colon, 6.29 µM; with NCI/ADR-RES ovarian it was 4.18 µM; in the assay on SR leukemia it was more than 100 µM.

On to `CCC(=O)C(C)C1=Nc2nnc(CCCCCCCc3nnc4n3C(=O)C(C(C)C(=O)CC)=N4)n2C1=O` (stereo not given), for which the TGI in the assay on 786-0 renal, in the assay with ACHN renal, in the assay on HCT-116 colon, with HT29 colon, in the assay with LOX IMVI melanoma and in the assay on NCI-H226 lung was more than 100 µM each time. For the same molecule, the TGI in the assay on RPMI-8226 leukemia and with SR leukemia was more than 100 µM each time.

As for `COC1OC(CO)C(O)C(O)C1Br` (stereo not given), the TGI with 786-0 renal, in the assay with ACHN renal, with HCT-116 colon, in the assay with HT29 colon, in the assay on LOX IMVI melanoma and in the assay with RPMI-8226 leukemia was more than 100 µM throughout. The molecule also returned a TGI in the assay with SR leukemia of more than 100 µM.

Take `O=S(=O)(NCC1CCC(CNc2ccc(Cl)cc2)CC1)c1ccc(-c2ccccc2)cc1` (stereo not given): the GI50 in the assay on 786-0 renal was more than 50 µM; in the assay with ACHN renal, 18.3 µM; with HCT-116 colon, 32.2 µM; with LOX IMVI melanoma, 45.7 µM; with MCF7 breast it was more than 50 µM; in the assay with NCI-H226 lung it was 21.2 µM. The GI50 in the assay with NCI/ADR-RES ovarian is more than 50 µM; in the assay with RPMI-8226 leukemia it was 12.5 µM; with SR leukemia it was more than 50 µM. Further, the TGI with 786-0 renal, in the assay with ACHN renal, with HCT-116 colon, in the assay with LOX IMVI melanoma, with MCF7 breast and in the assay on NCI-H226 lung was more than 50 µM each time. For the same molecule, the TGI in the assay with NCI/ADR-RES ovarian, in the assay with RPMI-8226 leukemia and in the assay with SR leukemia was more than 50 µM in each case.
